Test results from ChEMBL document CHEMBL3885861, “Open TG-GATES”.

Organism: Rattus norvegicus
Assay: Open TG-GATES - Regimen: Daily Repeat
Format: toxicity, organism-based, Sprague-Dawley
Parameters: regimen Daily Repeat, gender Male, age 6 weeks
Details: in vivo, po, 1000 mg/kg, route gavage, dose level High; for APTT / Bas / Eos / Fbg / Hb / Ht / Lym / MCH / MCHC / MCV / Mono / Neu / PT / Plat / RBC / Ret / WBC: tissue Blood; for KIDNEY_L / KIDNEY_R / KIDNEY_TOTAL: tissue Kidney; for LIVER: tissue Liver; for A/G / ALP / ALT / AST / BUN / CRE / Ca / Cl / DBIL / GLC / IP / K / LDH / Na / PL / RALB / TBIL / TC / TG / TP / gamma-GTP: tissue Plasma

Compound: COc1ccc(Cl)cc1C(=O)NCCc1ccc(S(=O)(=O)NC(=O)NC2CCCCC2)cc1 [GLYBURIDE]
- TERMINAL_BW (72 h, time 3 day): 228 g
- APTT (72 h, time 3 day): 20.6 s
- Bas (72 h, time 3 day): 0%
- Eos (72 h, time 3 day): 1.2%
- Fbg (72 h, time 3 day): 221.4 mg/dL
- Hb (72 h, time 3 day): 13.5 g/dL
- Ht (72 h, time 3 day): 40.2%
- Lym (72 h, time 3 day): 79.2%
- MCH (72 h, time 3 day): 21.1 pg
- MCHC (72 h, time 3 day): 33.6%
- MCV (72 h, time 3 day): 62.9 fL
- Mono (72 h, time 3 day): 2.4%
- Neu (72 h, time 3 day): 16.4%
- PT (72 h, time 3 day): 12.3 s
- Plat (72 h, time 3 day): 120.1 x10_4/uL
- RBC (72 h, time 3 day): 640 x10_4/ul
- Ret (72 h, time 3 day): 5.2%
- WBC (72 h, time 3 day): 112.9 x10_2/uL
- KIDNEY_L (72 h, time 3 day): 1 g
- KIDNEY_R (72 h, time 3 day): 1 g
- KIDNEY_TOTAL (72 h, time 3 day): 2 g
- LIVER (72 h, time 3 day): 11.1 g
- A/G (72 h, time 3 day): 1.6
- ALP (72 h, time 3 day): 893.4 IU/L
- ALT (72 h, time 3 day): 36.4 IU/L
- AST (72 h, time 3 day): 61.4 IU/L
- BUN (72 h, time 3 day): 15.2 mg/dL
- CRE (72 h, time 3 day): 0.4 mg/dL
- Ca (72 h, time 3 day): 10.8 mg/dL
- Cl (72 h, time 3 day): 102.8 meq/L
- DBIL (72 h, time 3 day): 0.094 mg/dL
- GLC (72 h, time 3 day): 200.2 mg/dL
- IP (72 h, time 3 day): 6.7 mg/dL
- K (72 h, time 3 day): 4 meq/L
- LDH (72 h, time 3 day): 179.2 IU/L
- Na (72 h, time 3 day): 140.6 meq/L
- PL (72 h, time 3 day): 150.2 mg/dL
- RALB (72 h, time 3 day): 3.4 g/dL
- TBIL (72 h, time 3 day): 0.1 mg/dL
- TC (72 h, time 3 day): 74.4 mg/dL
- TG (72 h, time 3 day): 93.4 mg/dL
- TP (72 h, time 3 day): 5.5 g/dL
- gamma-GTP (72 h, time 3 day): 1 IU/L
- TERMINAL_BW ([…], time 7 day): 260.9 g
- TERMINAL_BW ([…], time 14 day): 308.1 g
- TERMINAL_BW ([…], time 28 day): 392.8 g
- APTT ([…], time 7 day): 19.8 s
- Bas ([…], time 7 day): 0.2%
- Eos ([…], time 7 day): 1%
- Fbg ([…], time 7 day): 220 mg/dL
- Hb ([…], time 7 day): 13.6 g/dL
- Ht ([…], time 7 day): 40%
- Lym ([…], time 7 day): 81%
- MCH ([…], time 7 day): 20.7 pg
- MCHC ([…], time 7 day): 34%
- MCV ([…], time 7 day): 60.8 fL
- Mono ([…], time 7 day): 2.2%
- Neu ([…], time 7 day): 15.2%
- PT ([…], time 7 day): 12.4 s
- Plat ([…], time 7 day): 129 x10_4/uL
- RBC ([…], time 7 day): 658.4 x10_4/ul
- Ret ([…], time 7 day): 5.2%
- WBC ([…], time 7 day): 109.6 x10_2/uL
- APTT ([…], time 14 day): 20.5 s
- Bas ([…], time 14 day): 0%
- Eos ([…], time 14 day): 0.8%
- Fbg ([…], time 14 day): 224.4 mg/dL
- Hb ([…], time 14 day): 14 g/dL
- Ht ([…], time 14 day): 40.6%
- Lym ([…], time 14 day): 81%
- MCH ([…], time 14 day): 20.7 pg
- MCHC ([…], time 14 day): 34.6%
- MCV ([…], time 14 day): 59.9 fL
- Mono ([…], time 14 day): 2.4%
- Neu ([…], time 14 day): 15.2%
- PT ([…], time 14 day): 12.2 s
- Plat ([…], time 14 day): 116.7 x10_4/uL
- RBC ([…], time 14 day): 678.6 x10_4/ul
- Ret ([…], time 14 day): 4.5%
- WBC ([…], time 14 day): 129.3 x10_2/uL
- APTT ([…], time 28 day): 20.5 s
- Bas ([…], time 28 day): 0%
- Eos ([…], time 28 day): 1%
- Fbg ([…], time 28 day): 218.2 mg/dL
- Hb ([…], time 28 day): 14.9 g/dL
- Ht ([…], time 28 day): 42.8%
- Lym ([…], time 28 day): 81.4%
- MCH ([…], time 28 day): 19.5 pg
- MCHC ([…], time 28 day): 34.8%
- MCV ([…], time 28 day): 56 fL
- Mono ([…], time 28 day): 2.4%
- Neu ([…], time 28 day): 14.4%
- PT ([…], time 28 day): 12.3 s
- Plat ([…], time 28 day): 99 x10_4/uL
- RBC ([…], time 28 day): 766.2 x10_4/ul
- Ret ([…], time 28 day): 2.7%
- WBC ([…], time 28 day): 123.6 x10_2/uL
- KIDNEY_L ([…], time 7 day): 1.1 g
- KIDNEY_R ([…], time 7 day): 1.1 g
- KIDNEY_TOTAL ([…], time 7 day): 2.2 g
- KIDNEY_L ([…], time 14 day): 1.2 g
- KIDNEY_R ([…], time 14 day): 1.2 g
- KIDNEY_TOTAL ([…], time 14 day): 2.4 g
- KIDNEY_L ([…], time 28 day): 1.3 g
- KIDNEY_R ([…], time 28 day): 1.4 g
- KIDNEY_TOTAL ([…], time 28 day): 2.7 g
- LIVER ([…], time 7 day): 12.5 g
- LIVER ([…], time 14 day): 13.8 g
- LIVER ([…], time 28 day): 16 g
- A/G ([…], time 7 day): 1.4
- ALP ([…], time 7 day): 962.2 IU/L
- ALT ([…], time 7 day): 35 IU/L
- AST ([…], time 7 day): 61.6 IU/L
- BUN ([…], time 7 day): 16.2 mg/dL
- CRE ([…], time 7 day): 0.4 mg/dL
- Ca ([…], time 7 day): 10.8 mg/dL
- Cl ([…], time 7 day): 102.6 meq/L
- DBIL ([…], time 7 day): 0.1 mg/dL
- GLC ([…], time 7 day): 212 mg/dL
- IP ([…], time 7 day): 6.9 mg/dL
- K ([…], time 7 day): 3.8 meq/L
- LDH ([…], time 7 day): 169.4 IU/L
- Na ([…], time 7 day): 140.8 meq/L
- PL ([…], time 7 day): 151.4 mg/dL
- RALB ([…], time 7 day): 3.3 g/dL
- TBIL ([…], time 7 day): 0.2 mg/dL
- TC ([…], time 7 day): 73 mg/dL
- TG ([…], time 7 day): 123.6 mg/dL
- TP ([…], time 7 day): 5.6 g/dL
- gamma-GTP ([…], time 7 day): 1.4 IU/L
- A/G ([…], time 14 day): 1.5
- ALP ([…], time 14 day): 801.6 IU/L
- ALT ([…], time 14 day): 33.4 IU/L
- AST ([…], time 14 day): 56.8 IU/L
- BUN ([…], time 14 day): 14.6 mg/dL
- CRE ([…], time 14 day): 0.5 mg/dL
- Ca ([…], time 14 day): 10.6 mg/dL
- Cl ([…], time 14 day): 102.8 meq/L
- DBIL ([…], time 14 day): 0.1 mg/dL
- GLC ([…], time 14 day): 174.6 mg/dL
- IP ([…], time 14 day): 6.7 mg/dL
- K ([…], time 14 day): 3.7 meq/L
- LDH ([…], time 14 day): 115 IU/L
- Na ([…], time 14 day): 141 meq/L
- PL ([…], time 14 day): 151 mg/dL
- RALB ([…], time 14 day): 3.6 g/dL
- TBIL ([…], time 14 day): 0.2 mg/dL
- TC ([…], time 14 day): 72.4 mg/dL
- TG ([…], time 14 day): 102.2 mg/dL
- TP ([…], time 14 day): 5.9 g/dL
- gamma-GTP ([…], time 14 day): 1.4 IU/L
- A/G ([…], time 28 day): 1.4
- ALP ([…], time 28 day): 552.4 IU/L
- ALT ([…], time 28 day): 31.6 IU/L
- AST ([…], time 28 day): 55.2 IU/L
- BUN ([…], time 28 day): 16 mg/dL
- CRE ([…], time 28 day): 0.5 mg/dL
- Ca ([…], time 28 day): 10.3 mg/dL
- Cl ([…], time 28 day): 103 meq/L
- DBIL ([…], time 28 day): 0.098 mg/dL
- GLC ([…], time 28 day): 230.2 mg/dL
- IP ([…], time 28 day): 6.5 mg/dL
- K ([…], time 28 day): 4.2 meq/L
- LDH ([…], time 28 day): 131 IU/L
- Na ([…], time 28 day): 141 meq/L
- PL ([…], time 28 day): 153.2 mg/dL
- RALB ([…], time 28 day): 3.5 g/dL
- TBIL ([…], time 28 day): 0.2 mg/dL
- TC ([…], time 28 day): 75.6 mg/dL
- TG ([…], time 28 day): 102 mg/dL
- TP ([…], time 28 day): 6 g/dL
- gamma-GTP ([…], time 28 day): 0.8 IU/L
